Test results published in patent US20230086703A1, “N-(4-(5-chloropyridin-3-yl)phenyl)-2-(2-(cyclopropanesulfonamido)pyrimidin-4-yl) butanamide derivatives and related compounds as human CTPS1 inhibitors for the treatment of proliferative diseases” (Step Pharma S.A.S., priority 2019, published 2023).
pIC50: −log10 of the molar value. Like-named read-outs stand apart in the source and are kept apart here.

Target: T1, human CTPS1 (Homo sapiens, UniProt P17812)
T1 construct: FLAG (with GG linker); His8 (with GG linker); purchased Proteros biostructures GmbH
T1 sequence (P17812 1-591): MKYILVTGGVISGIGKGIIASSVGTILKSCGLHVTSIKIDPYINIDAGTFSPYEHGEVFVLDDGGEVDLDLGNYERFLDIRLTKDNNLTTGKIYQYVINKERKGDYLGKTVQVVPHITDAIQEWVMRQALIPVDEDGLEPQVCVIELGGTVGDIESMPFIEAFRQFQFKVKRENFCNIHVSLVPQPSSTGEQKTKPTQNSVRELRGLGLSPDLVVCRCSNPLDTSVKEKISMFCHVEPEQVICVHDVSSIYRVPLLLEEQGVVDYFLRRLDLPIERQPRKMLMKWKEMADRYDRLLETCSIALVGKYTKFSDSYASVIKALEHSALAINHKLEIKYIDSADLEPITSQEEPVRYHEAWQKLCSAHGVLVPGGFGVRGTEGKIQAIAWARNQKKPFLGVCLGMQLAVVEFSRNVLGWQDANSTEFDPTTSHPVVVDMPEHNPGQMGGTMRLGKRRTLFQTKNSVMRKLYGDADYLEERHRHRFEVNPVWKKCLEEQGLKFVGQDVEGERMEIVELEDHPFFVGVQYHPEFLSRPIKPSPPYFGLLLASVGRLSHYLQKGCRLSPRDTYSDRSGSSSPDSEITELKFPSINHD
Assay: Human CTPS1 enzyme inhibition, ADP-Glo Max assay
Format: biochemical
In short: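 Enzyme preincubated with compound for 10 min at 25 °C in 50 mM Tris pH 8.0, 10 mM MgCl2, 0.01% Tween-20, 2 mM L-cysteine. ATP-to-ADP conversion detected by ADP-Glo Max luminescence after 60 min depletion and 60 min development steps. Percentage inhibition calculated per concentration.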

[1] = ADP-Glo Max assay, Table 10, read-out: Human CTPS1 Enzyme Inhibition, IC50 grouped by potency range (CTPS1)
[2] = Table 12, ADP-Glo Max assay, read-out: CTPS1 (Human CTPS1 Enzyme Inhibition data grouped by potency range)

Row | SMILES | pIC50 [1] | pIC50 [2]
1 | CC(C)(C(=O)Nc1ccc(-c2cncc(Cl)n2)cn1)c1csc(NS(=O)(=O)C2CC2)n1 [T262, N-(5-(6-chloropyrazin-2-yl)pyridin-2-yl)-2-(2-(cyclopropanesulfonamido)thiazol-4-yl)-2-methylpropanamide] | > 7.00 | –
2 | O=C(Cc1csc(NS(=O)(=O)C2CC2)n1)Nc1ccc(-c2cncc(CO)c2)cc1 [T45, 2-(2-(cyclopropanesulfonamido)thiazol-4-yl)-N-(4-(5-(hydroxymethyl)pyridin-3-yl)phenyl)acetamide] | 6.00 to 7.00 | –
3 | COc1cccc(-c2ccc(NC(=O)C(C)(C)c3csc(NS(=O)(=O)C4CC4)n3)nc2)c1 [T232, 2-(2-(cyclopropanesulfonamido)thiazol-4-yl)-N-(5-(3-methoxyphenyl)pyridin-2-yl)-2-methylpropanamide] | 6.00 to 7.00 | –
4 | CC(C)(C(=O)Nc1ncc(-c2cccnc2)cc1F)c1csc(NS(=O)(=O)C2CC2)n1 [T227, 2-(2-(cyclopropanesulfonamido)thiazol-4-yl)-N-(5-fluoro-[3,3′-bipyridin]-6-yl)-2-methylpropanamide] | 6.00 to 7.00 | –
5 | CC(C)(C(=O)Nc1ccc(-c2cccc(C(F)(F)F)c2)cn1)c1csc(NS(=O)(=O)C2CC2)n1 [T235, 2-(2-(cyclopropanesulfonamido)thiazol-4-yl)-2-methyl-N-(5-(3-(trifluoromethyl)phenyl)pyridin-2-yl)propanamide] | 6.00 to 7.00 | –
6 | O=C(Cc1csc(NS(=O)(=O)C2CC2)n1)Nc1ccc(-c2cncnc2)cc1 [T247, 2-(2-(cyclopropanesulfonamido)thiazol-4-yl)-N-(4-(pyrimidin-5-yl)phenyl)acetamide] | 6.00 to 7.00 | –
7 | CC(C)(C(=O)Nc1ncc(-c2cncc(C#N)n2)cc1F)c1csc(NS(=O)(=O)C2CC2)n1 [T113, N-(5-(6-cyanopyrazin-2-yl)-3-fluoropyridin-2-yl)-2-(2-(cyclopropanesulfonamido)thiazol-4-yl)-2-methylpropanamide] | 5.00 to 6.00 | –
8 | CC(C)(C)c1ccc(-c2ccc(NC(=O)Cc3csc(NS(=O)(=O)C4CC4)n3)cc2)cc1 [T243, N-(4′-(tert-butyl)-[1,1′-biphenyl]-4-yl)-2-(2-(cyclopropanesulfonamido)thiazol-4-yl)acetamide] | 5.00 to 6.00 | –
9 | CC(C)(C(=O)Nc1ccc(-c2cccc(C(F)(F)F)n2)cc1)c1csc(NS(=O)(=O)C2CC2)n1 [T270, 2-(2-(cyclopropanesulfonamido)thiazol-4-yl)-2-methyl-N-(4-(6-(trifluoromethyl)pyridin-2-yl)phenyl)propanamide] | 6.00 to 7.00 | –
10 | CC(C)(C(=O)Nc1ccc(-c2cncc(C(F)(F)F)c2)cc1F)c1csc(NS(C)(=O)=O)n1 [T426, N-(2-fluoro-4-(5-(trifluoromethyl)pyridin-3-yl)phenyl)-2-methyl-2-(2-(methylsulfonamido)thiazol-4-yl)propanamide] | 6.00 to 7.00 | –
11 | CCOc1cncc(-c2ccc(NC(=O)C3(c4ccnc(NS(=O)(=O)C5CC5)n4)CCN(C(=O)COC)CC3)nc2)n1 [P288] | – | > 7.00
12 | CC(C)(C(=O)Nc1ccc(-c2cncc(OCC(F)(F)F)n2)cn1)c1csc(NS(=O)(=O)C2CC2)n1 [T109, 2-(2-(cyclopropanesulfonamido)thiazol-4-yl)-2-methyl-N-(5-(6-(2,2,2-trifluoroethoxy)pyrazin-2-yl)pyridin-2-yl)propanamide] | > 7.00 | –
13 | CCOc1cncc(-c2ccc(NC(=O)C(C)(C)c3csc(NS(C)(=O)=O)n3)c(F)c2)n1 [T431, N-(4-(6-ethoxypyrazin-2-yl)-2-fluorophenyl)-2-methyl-2-(2-(methylsulfonamido)thiazol-4-yl)propanamide] | > 7.00 | –
14 | COc1cncc(-c2ccc(NC(=O)Cc3csc(NS(=O)(=O)C4CCC4)n3)cc2)n1 [T61, 2-(2-(cyclobutanesulfonamido)thiazol-4-yl)-N-(4-(6-methoxypyrazin-2-yl)phenyl)acetamide] | > 7.00 | –
15 | COc1cc(-c2cccnc2)ccc1NC(=O)Cc1csc(NS(=O)(=O)C2CC2)n1 [T215, 2-(2-(cyclopropanesulfonamido)thiazol-4-yl)-N-(2-methoxy-4-(pyridin-3-yl)phenyl)acetamide] | > 7.00 | –
16 | CC(C)(C(=O)Nc1ccc(-c2cncnc2)nc1)c1csc(NS(=O)(=O)C2CC2)n1 [T117, 2-(2-(cyclopropanesulfonamido)thiazol-4-yl)-2-methyl-N-(6-(pyrimidin-5-yl)pyridin-3-yl)propanamide] | 6.00 to 7.00 | –
17 | CCOc1cncc(-c2ccc(NC(=O)C(C)(C)c3csc(NS(=O)(=O)C4(C)CC4)n3)cc2)n1 [T301, N-(4-(6-ethoxypyrazin-2-yl)phenyl)-2-methyl-2-(2-((1-methylcyclopropane)-1-sulfonamido)thiazol-4-yl)propanamide] | > 7.00 | –
18 | CCOc1cncc(-c2ccc(NC(=O)C3(c4ccnc(NS(=O)(=O)C5CC5)n4)CCC(N4CCN(C)CC4)CC3)nc2)n1 (stereo not drawn) [P311] | – | 6.00 to 7.00
19 | CCC(C(=O)Nc1ccc(-c2cncc(F)c2)cc1)c1csc(NS(=O)(=O)C2CC2)n1 (single isomer, unassigned) [T72, 2-(2-(cyclopropanesulfonamido)thiazol-4-yl)-N-(4-(5-fluoropyridin-3-yl)phenyl)butanamide] | > 7.00 | –
20 | CCCOc1cncc(-c2ccc(NC(=O)C(C)(C)c3csc(NS(=O)(=O)C4CC4)n3)nc2)c1 [T146, 2-(2-(cyclopropanesulfonamido)thiazol-4-yl)-2-methyl-N-(5′-propoxy-[3,3′-bipyridin]-6-yl)propanamide] | 6.00 to 7.00 | –
21 | Cc1cc(-c2cncc(Cl)n2)ccc1NC(=O)C(C)(C)c1csc(NS(=O)(=O)C2CC2)n1 [T138, N-(4-(6-chloropyrazin-2-yl)-2-methylphenyl)-2-(2-(cyclopropanesulfonamido)thiazol-4-yl)-2-methylpropanamide] | > 7.00 | –
22 | Cc1cc(-c2cncc(Cl)c2)cc(C)c1NC(=O)C(C)(C)c1csc(NS(=O)(=O)C2CC2)n1 [T321, N-(4-(5-chloropyridin-3-yl)-2,6-dimethylphenyl)-2-(2-(cyclopropanesulfonamido)thiazol-4-yl)-2-methylpropanamide] | > 7.00 | –

Next, values leading:

Row | pIC50 [1] | pIC50 [2] | SMILES
23 | > 7.00 | – | CCC(CC)(C(=O)Nc1ccc(-c2cccnc2)cc1)c1csc(NS(=O)(=O)C2CC2)n1 [T92, 2-(2-(cyclopropanesulfonamido)thiazol-4-yl)-2-ethyl-N-(4-(pyridin-3-yl)phenyl)butanamide]
24 | 5.00 to 6.00 | – | CC(C)(C(=O)Nc1ccc(-c2cccnc2C(F)(F)F)cc1)c1csc(NS(=O)(=O)C2CC2)n1 [T248, 2-(2-(cyclopropanesulfonamido)thiazol-4-yl)-2-methyl-N-(4-(2-(trifluoromethyl)pyridin-3-yl)phenyl)propanamide]
25 | 6.00 to 7.00 | – | COc1cccc(-c2ccc(NC(=O)C(C)(C)c3csc(NS(=O)(=O)C4CC4)n3)cc2)c1 [T28, 2-(2-(cyclopropanesulfonamido)thiazol-4-yl)-N-(3′-methoxy-[1,1′-biphenyl]-4-yl)-2-methylpropanamide]
26 | 6.00 to 7.00 | – | CC(C)(C(=O)Nc1ccc(-c2cccnc2)cc1)c1csc(NS(=O)(=O)C2CCC2)n1 [T306, 2-(2-(cyclobutanesulfonamido)thiazol-4-yl)-2-methyl-N-(4-(pyridin-3-yl)phenyl)propanamide]
27 | > 7.00 | – | CC(C)(C(=O)Nc1ccc(-c2cncc(Cl)n2)cc1)c1csc(NS(=O)(=O)C2CC2)n1 [T155, N-(4-(6-chloropyrazin-2-yl)phenyl)-2-(2-(cyclopropanesulfonamido)thiazol-4-yl)-2-methylpropanamide]
28 | 6.00 to 7.00 | – | CC(C)(C(=O)Nc1ccc(-c2cncc(CO)n2)cc1)c1csc(NS(=O)(=O)C2CC2)n1 [T283, 2-(2-(cyclopropanesulfonamido)thiazol-4-yl)-N-(4-(6-(hydroxymethyl)pyrazin-2-yl)phenyl)-2-methylpropanamide]
29 | 6.00 to 7.00 | – | CC(C)(C(=O)Nc1ccc(-c2cccnc2F)cc1)c1csc(NS(=O)(=O)C2CC2)n1 [T240, 2-(2-(cyclopropanesulfonamido)thiazol-4-yl)-N-(4-(2-fluoropyridin-3-yl)phenyl)-2-methylpropanamide]
30 | 6.00 to 7.00 | – | CC(C)(C(=O)Nc1ccc(-c2cccnc2)cn1)c1csc(NS(=O)(=O)C2CC2)n1 [T148, N-([3,3′-bipyridin]-6-yl)-2-(2-(cyclopropanesulfonamido)thiazol-4-yl)-2-methylpropanamide]
31 | 6.00 to 7.00 | – | CC(C)(C(=O)Nc1ccc(-c2ccccc2)cc1)c1csc(NS(=O)(=O)C2CC2)n1 [T97, N-([1,1′-biphenyl]-4-yl)-2-(2-(cyclopropanesulfonamido)thiazol-4-yl)-2-methylpropanamide]
32 | > 7.00 | – | Cc1cncc(-c2ccc(NC(=O)Cc3csc(NS(=O)(=O)C4CC4)n3)cc2)c1 [T99, 2-(2-(cyclopropanesulfonamido)thiazol-4-yl)-N-(4-(5-methylpyridin-3-yl)phenyl)acetamide]
33 | > 7.00 | – | CCC(CC)(C(=O)Nc1ccc(-c2cncc(F)c2)cc1)c1csc(NS(=O)(=O)C2CC2)n1 [T156, 2-(2-(cyclopropanesulfonamido)thiazol-4-yl)-2-ethyl-N-(4-(5-fluoropyridin-3-yl)phenyl)butanamide]
